Experimental data from patent US10189795B2, “Aryl amine substituted quinoxaline used as anticancer drugs” (priority 2014, dated 2019).

Legend:
[1] = system: NCI-1703; assay: cell viability of NCI-1703 cells, 1 and 10 uM of each erlotinib derivative, and IC50; assay type: cell-based; conditions: Homo sapiens
[2] = system: H520; assay: cell viability of H520 cells, 1 and 10 uM; assay type: cell-based; conditions: Homo sapiens, NCI-H520
[3] = system: NCI-H226; assay: cell viability of NCI-H226 cells, 1 and 10 uM; assay type: cell-based; conditions: Homo sapiens
[4] = BA (%), Table 5; conditions: in vivo
[5] = system: H2170; assay: cell viability of H2170 cells, 1 and 10 uM; assay type: cell-based; conditions: Homo sapiens, NCI-H2170
[6] = system: A549; assay: cell viability of A549 cells, 1 and 10 uM; assay type: cell-based; conditions: Homo sapiens
[7] = system: SW900; assay: cell viability of SW900 cells, 1 and 10 uM; assay type: cell-based; conditions: Homo sapiens
[8] = system: H358; assay: cell viability of H358 cells, 1 and 10 uM; assay type: cell-based; conditions: Homo sapiens, NCI-H358
[9] = system: PP2A; assay: PP2A phosphatase activity (malachite green-phosphate assay in cell lysate); assay type: cell-based
Description: The protein phosphatase activity in each cell lysate was determined by measuring the generation of free phosphate from threonine phosphopeptide using the malachite green-phosphate complex assay as described by the manufacturer (Upstate Biotechnology, Lake Placid, N.Y., USA). In brief, HCC cell lysates were first prepared in a low-detergent lysis buffer. […] After incubation for 10 min at 30° C., the malachite dye was added and free phosphate was measured by optical density at 650 nm. In order to avoid variation resulting from differences in the amount of immunoprecipitation protein between samples, the phosphatase activities were normalized to the amounts of PP2A immunoprecipitated, which were detected and quantified by immunoblot analysis for each treatment group.

[10] = target: T1, SET-PP2Ac binding (Homo sapiens, UniProt Q01105); assay: disruption of SET-PP2Ac binding (surface plasmon resonance, co-IP)
T1 construct: His; purchased Genway (SET-His); Abnova (PP2Ac-GST) GWB-ATG319; H00005515
T1 sequence (Q01105 1-277 isoform Q01105-2): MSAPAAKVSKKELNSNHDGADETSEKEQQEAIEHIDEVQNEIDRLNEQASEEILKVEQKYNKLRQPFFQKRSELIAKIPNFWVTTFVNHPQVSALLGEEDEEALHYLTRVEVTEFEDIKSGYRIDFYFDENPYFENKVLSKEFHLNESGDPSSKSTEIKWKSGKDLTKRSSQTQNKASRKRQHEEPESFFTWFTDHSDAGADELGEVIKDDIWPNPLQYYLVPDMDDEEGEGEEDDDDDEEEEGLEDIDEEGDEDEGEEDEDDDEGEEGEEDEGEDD
Description: Binding affinities of full-length SET and truncated SET to PP2Ac and the effect of the erlotinib derivatives of the present invention on disrupting SET and PP2Ac were analyzed. PP2Ac-GST recombinant protein was bound in the CMS chip pre-coated with GST-capture antibodies. Sensorgrams were generated by injecting several concentrations of the erlotinib derivatives of the present invention mixed with fixed-concentration of SET recombinant protein, or the mixture of different concentration of truncated SET proteins in a fixed-dose EMQA. PP2Ac-GST recombinant protein used for this experiment was purchased from Abnova (H00005515) and SET-His recombinant protein was obtained from Genway (GWB-ATG319).
EMQA reactivates PP2A by disrupting the binding of SET-PP2Ac. To validate the role of SET, the present invention generated Hep3B cells with ectopic expression of myc-tagged SET by transient transfection. […] With a fixed amount of PP2Ac coated on the CM chip, the present invention tested the effects of a fixed-dose of EMQA on interfering different proportions of full-length and truncated forms of SET proteins in SPR system. […] To validate the findings of this ex vivo system, the present invention generated cells with ectopic overexpression of these two truncated forms of Flag-tagged SET proteins by transient transfections.

Row | minimal concentration to disrupt SET-PP2Ac binding [10] | SMILES | viability at 1 µM [1] | viability at 10 µM [1] | viability at 1 µM [2] | viability at 10 µM [2] | viability at 1 µM [3] | viability at 10 µM [3] | BA (%) [4] | viability at 1 µM [5] | viability at 10 µM [5] | viability at 1 µM [6] | viability at 10 µM [6] | viability at 1 µM [7] | viability at 10 µM [7] | viability at 1 µM [8] | viability at 10 µM [8] | IC50 ([1]; cell viability) | minimal concentration for PP2A activation [9]
1 | – | Cc1ccc(Nc2nc3ccccc3nc2Nc2ccc(C)c(O)c2)cc1O [TD66, 5,5′-(quinoxaline-2,3-diylbis(azanediyl))bis(2-methylphenol)] | 84.5 ± 2.3% | 10.1 ± 0.2% | 104 ± 8.53% | 51.7 ± 20.5% | 71.2 ± 1.2% | 4.7 ± 0.1% | 22% | 101.5 ± 0.48% | 3.7 ± 1.37% | 55.5 ± 5.1% | 11.1 ± 0.6% | 113 ± 4.64% | 77.4 ± 20.5% | 96.6 ± 0.9% | 14.9 ± 3% | – | –
2 | 50 to 100 nM | C#Cc1cccc(Nc2nc3ccc([N+](=O)[O-])cc3nc2Nc2cccc(C#C)c2)c1 [TD604, N^2,N^3-bis(3-ethynylphenyl)-6-nitroquinoxaline-2,3-diamine] | 15.2 ± 0.5% | 12.5 ± 0.3% | 30.5 ± 13.9% | 0.99 ± 0.02% | 40.3 ± 1.7% | 5.3 ± 0.3% | 57% | 74.7 ± 6.38% | 2.06 ± 0.66% | 117 ± 7.2% | 132 ± 5.1% | 86.1 ± 22.8% | 0% | 115 ± 9% | 116 ± 8.5% | 600 nM | <50 nM
